According to US20220259202A1, “1-(4-(AMINOMETHYL)BENZYL)-2-BUTYL-2H-PYRAZOLO[3,4-C]QUINOLIN-4-AMINE DERIVATIVES AND RELATED COMPOUNDS AS TOLL-LIKE RECEPTOR (TLR) 7/8 AGONISTS, AS WELL AS ANTIBODY DRUG CONJUGATES THEREOF FOR USE IN CANCER THERAPY AND DIAGNOSIS” (SUTRO BIOPHARMA, INC., priority 2019, published 2022):

What was measured:
Format in all cases: cell-based
KB cells = assay: In vitro cytotoxicity, cell proliferation assay (Cell Titer-Glo); details: concentration up to 1 μM, 120 hrs
Experimental: The cytotoxicity of Compound 1 was tested in a cell proliferation assay on KB cells. KB cells were obtained from ATCC and were maintained in Ham's F-12: high glucose DMEM (50:50) (Corning) supplemented with 10% heat-inactivated fetal bovine serum (Corning), 1% Penicillin/Streptomycin (Corning) and 2 mmol/L-glutamax (Thermo Fisher Scientific). One day before the assay, KB cells were harvested with Accutase and a total of 625 cells were seeded in each well of a 384-well flat bottom white polystyrene plate. Compound 1 was formulated at 2-fold starting concentration in the cell culture medium. Serial dilutions of Compound 1 (1:4 serial dilution starting from 1000 nM) was added into treatment wells. Assay plates were cultured at 37° C. in a CO2 incubator for 120 hrs before assay. For cell viability measurement, 30 μL of Cell Titer-Glo® reagent (Promega Corp. Madison, Wis.) was added into each well, and plates were processed as per product instructions. Relative luminescence was measured on an ENVISION® plate reader (Perkin-Elmer; Waltham, Mass.). Relative luminescence readings were converted to percent viability using untreated cells as controls. Data was fitted with non-linear regression analysis, using a log(inhibitor) vs. response-variable slope, 4-parameter fit with GraphPad Prism (GraphPad v 5.0, Software; San Diego, California).

human TLR8 = biological target: T1, human TLR8 (Homo sapiens, UniProt Q9NR97); assay: HEK293 SEAP reporter assay, other TLRs (Biological Example 3); details: 16 hrs, * = Estimated
T1 construct: host or cells: HEK293
T1 sequence (Q9NR97 27-1041): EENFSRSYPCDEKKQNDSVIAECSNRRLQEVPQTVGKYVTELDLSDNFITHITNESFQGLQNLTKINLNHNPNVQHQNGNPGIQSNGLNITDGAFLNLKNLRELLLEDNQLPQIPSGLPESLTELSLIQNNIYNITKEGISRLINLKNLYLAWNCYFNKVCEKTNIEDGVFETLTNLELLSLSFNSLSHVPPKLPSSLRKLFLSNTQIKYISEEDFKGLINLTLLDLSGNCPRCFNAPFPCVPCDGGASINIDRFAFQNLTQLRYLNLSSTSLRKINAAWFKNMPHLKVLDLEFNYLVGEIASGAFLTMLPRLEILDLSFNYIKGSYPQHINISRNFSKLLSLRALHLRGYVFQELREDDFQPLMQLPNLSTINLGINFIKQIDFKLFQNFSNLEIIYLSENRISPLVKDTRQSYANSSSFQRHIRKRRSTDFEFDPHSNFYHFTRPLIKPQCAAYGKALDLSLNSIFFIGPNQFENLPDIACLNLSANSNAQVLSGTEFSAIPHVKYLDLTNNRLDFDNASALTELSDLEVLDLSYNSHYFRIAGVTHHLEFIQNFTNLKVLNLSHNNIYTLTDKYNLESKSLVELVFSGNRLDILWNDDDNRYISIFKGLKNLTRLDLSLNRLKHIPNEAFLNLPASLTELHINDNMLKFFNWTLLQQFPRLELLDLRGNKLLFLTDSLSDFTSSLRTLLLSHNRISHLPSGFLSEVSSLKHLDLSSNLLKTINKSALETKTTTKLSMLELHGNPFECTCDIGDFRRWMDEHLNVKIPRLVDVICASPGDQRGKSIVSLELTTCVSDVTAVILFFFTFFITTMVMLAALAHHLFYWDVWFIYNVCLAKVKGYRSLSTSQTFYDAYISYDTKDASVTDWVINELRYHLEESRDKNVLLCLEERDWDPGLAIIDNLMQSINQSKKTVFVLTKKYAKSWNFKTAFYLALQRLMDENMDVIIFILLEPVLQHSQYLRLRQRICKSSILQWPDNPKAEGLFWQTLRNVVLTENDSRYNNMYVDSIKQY
Description: (§1) In this example, the activity of the Compound 1 to stimulate different human and mouse TLR pathways was investigated on HEK293 cells transfected with inducible SEAP (secreted embryonic alkaline phosphatase) reporter genes and also expressing different human TLRs (TLR2, TLR3, TLR4, TLR5, TLR7, TLR8, TLRS) or mouse TLRs (TLR2, TLR3, TLR4, TLR5, TLR7, TLR8, TLR13).
(§2) HEK293 reporter cell lines were purchased from Invivogen and cell lines were maintained in manufacture recommended culture medium with required supplemental antibiotics. On the day of assay, the cells were harvested with Accutase and counted by the Vi-CELL Cell Viability Analyzers. Cells were re-suspended in HEK blue detection medium and a total of 10000 cells were seeded in each well of a 384-well flat bottom plate. […] Assay plates were cultured at 37° C. in a CO2 incubator for 16 hrs. HEK-Blue™ Detection medium changes to a purple/blue color in the presence of secreted SEAP, which can be detected by spectrophotometry at 620-655 nm. Data was fitted with non-linear regression analysis, using a log(inhibitor) vs. response-variable slope, 3-parameter fit with GraphPad Prism.

human TLR7 = biological target: T2, human TLR7 (Homo sapiens, UniProt Q9NYK1); assay: as above; details: 16 hrs, * = Estimated
T2 construct: host or cells: HEK293
T2 sequence (Q9NYK1 27-1049): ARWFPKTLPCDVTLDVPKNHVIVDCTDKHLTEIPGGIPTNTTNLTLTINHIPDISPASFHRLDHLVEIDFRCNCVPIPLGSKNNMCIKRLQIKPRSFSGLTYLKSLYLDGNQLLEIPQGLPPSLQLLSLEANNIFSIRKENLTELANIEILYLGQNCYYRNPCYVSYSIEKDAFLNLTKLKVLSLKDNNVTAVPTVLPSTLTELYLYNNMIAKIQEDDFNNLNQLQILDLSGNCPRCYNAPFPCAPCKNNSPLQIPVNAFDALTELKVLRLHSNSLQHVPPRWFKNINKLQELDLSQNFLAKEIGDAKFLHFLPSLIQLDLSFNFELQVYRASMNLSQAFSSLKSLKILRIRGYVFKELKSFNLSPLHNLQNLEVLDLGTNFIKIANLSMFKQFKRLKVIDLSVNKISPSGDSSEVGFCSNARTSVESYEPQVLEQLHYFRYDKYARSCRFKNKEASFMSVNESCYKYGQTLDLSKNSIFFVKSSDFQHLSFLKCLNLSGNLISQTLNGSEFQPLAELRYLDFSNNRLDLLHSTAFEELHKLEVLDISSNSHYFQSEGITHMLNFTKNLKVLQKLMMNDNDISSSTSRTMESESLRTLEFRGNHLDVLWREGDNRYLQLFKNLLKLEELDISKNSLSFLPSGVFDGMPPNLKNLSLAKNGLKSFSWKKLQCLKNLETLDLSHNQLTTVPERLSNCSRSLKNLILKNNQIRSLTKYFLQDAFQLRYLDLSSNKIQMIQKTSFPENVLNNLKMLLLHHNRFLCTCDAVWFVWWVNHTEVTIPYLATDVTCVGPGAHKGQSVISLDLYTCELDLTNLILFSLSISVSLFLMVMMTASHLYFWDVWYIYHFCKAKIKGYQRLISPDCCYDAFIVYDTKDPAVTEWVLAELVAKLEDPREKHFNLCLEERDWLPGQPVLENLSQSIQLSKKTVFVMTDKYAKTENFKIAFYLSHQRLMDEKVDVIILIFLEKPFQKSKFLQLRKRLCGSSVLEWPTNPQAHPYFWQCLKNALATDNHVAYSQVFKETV
Description: as §1, §2

For `CCCCn1nc2c(N)nc3ccccc3c2c1Cc1ccc(CN)cc1` [Compound 1, 1-(4-(aminomethyl)benzyl)-2-butyl-2H-pyrazolo[3,4-c]quinolin-4-amine], the “cytotoxicity on KB cells” value (KB cells) was “did not show any cytotoxicity”, the EC50 (human TLR8) was roughly 401 nM and the EC50 (human TLR7) was 61.4 nM.
